Experiments:
[1] = Plasma level of the reduced coenzyme Q10 in hamsters on high-fat diet (HPLC); assay type: in vivo
Protocol: Hamsters were fed on a high-fat diet containing 1.5% of cholesterol for one week and, then, a 1% (w/v) solution of either the oxidized or the reduced coenzyme Q10 in olive oil was administered orally for 4 consecutive days. After overnight fasting, the plasma was collected and the reduced coenzyme Q10 in the plasma was assayed by HPLC.

[2] = test system: plasma low-density lipoprotein (LDL); experiment: Antioxidant activity of plasma LDL (lag time of copper-induced conjugated diene formation) in hamsters on high-fat diet; assay type: in vivo; settings: 1% (w/v) solution in olive oil plus pravastatin 10 mg/kg orally for 4 consecutive days, LDL 40 μg protein/mL, copper ion 1 μM, 234 nm, n = 3
Protocol: Hamsters were fed on a high-fat diet containing 1.5% of cholesterol for 1 week and, then, dosed orally with a 1% (w/v) solution of either the oxidized or the reduced coenzyme Q10 in olive oil and 10 mg of pravastatin per kg body weight for 4 consecutive days. After overnight fasting, the plasma was collected, the plasma LDL was separated by density-gradient centrifugation method, and as a marker of LDL antioxidant activity, the lag time was measured. The lag time is defined herein as the value found by adding a copper ion (1 μM) to LDL (40 μg protein/mL) and monitoring at 234 nm the time course of conjugated diene structure of oxidized fat/fatty acid resulting from oxidation to determine the time interval until a sharp increase had begun in the conjugated diene concentration.

Row | SMILES | Gain in reduced coenzyme Q10 in plasma ([1]; hamster, in vivo, po, 4 days) | Gain in reduced coenzyme Q10 in plasma, relative to oxidized coenzyme Q10 group (100%) ([1]; hamster, in vivo, po, 4 days) | Lag time (LDL antioxidant activity) [2] | Gain in reduced coenzyme Q10 in plasma ([1]; hamsters on high-fat diet (1.5% cholesterol, 1 week), 1% (w/v) solution in olive oil orally for 4 consecutive days, plasma after overnight fasting, n = 3) | Gain in reduced coenzyme Q10 in plasma, relative to oxidized coenzyme Q10 group (100%) ([1]; hamsters on high-fat diet, 1% (w/v) solution in olive oil orally for 4 consecutive days, n = 3)
1 | COC1=C(OC)C(=O)C(C/C=C(\C)CC/C=C(\C)CC/C=C(\C)CC/C=C(\C)CC/C=C(\C)CC/C=C(\C)CC/C=C(\C)CC/C=C(\C)CC/C=C(\C)CCC=C(C)C)=C(C)C1=O [oxidized coenzyme Q10] | 10.1 ng/mL | 100% | 25 ± 8 min | – | –
2 | COc1c(O)c(C)c(C/C=C(\C)CC/C=C(\C)CC/C=C(\C)CC/C=C(\C)CC/C=C(\C)CC/C=C(\C)CC/C=C(\C)CC/C=C(\C)CC/C=C(\C)CCC=C(C)C)c(O)c1OC [reduced coenzyme Q10] | – | – | 44 ± 9 min | 14.4 ng/mL | 143%

Reference: patent US20040248992A1, “Method and composition for inhibiting arteriosclerosis” (KANEKA CORPORATION, priority 2000, published 2004)
